{"source": "patent US20090227556A1", "about": "“RECEPTOR TYROSINE KINASE INHIBITORS COMPRISING PYRIDINE AND PYRIMIDINE DERIVATIVES” (Eisai R&D Management Co., Ltd., priority 2008, published 2009)", "key": {"[1]": {"tested_on": "NIH3T3 cells transformed by mutated RET", "conditions": "after injection of the cells to a nude mouse; cited from earlier work"}, "[2]": {"tested_on": "NIH3T3 cells transformed by mutated RET", "conditions": "cited from earlier work"}, "KIT": {"target": "T1, KIT (Homo sapiens, UniProt P10721)", "T1 construct": "purchased Carna Biosciences Inc. 08-156", "T1 sequence (P10721 26-976)": "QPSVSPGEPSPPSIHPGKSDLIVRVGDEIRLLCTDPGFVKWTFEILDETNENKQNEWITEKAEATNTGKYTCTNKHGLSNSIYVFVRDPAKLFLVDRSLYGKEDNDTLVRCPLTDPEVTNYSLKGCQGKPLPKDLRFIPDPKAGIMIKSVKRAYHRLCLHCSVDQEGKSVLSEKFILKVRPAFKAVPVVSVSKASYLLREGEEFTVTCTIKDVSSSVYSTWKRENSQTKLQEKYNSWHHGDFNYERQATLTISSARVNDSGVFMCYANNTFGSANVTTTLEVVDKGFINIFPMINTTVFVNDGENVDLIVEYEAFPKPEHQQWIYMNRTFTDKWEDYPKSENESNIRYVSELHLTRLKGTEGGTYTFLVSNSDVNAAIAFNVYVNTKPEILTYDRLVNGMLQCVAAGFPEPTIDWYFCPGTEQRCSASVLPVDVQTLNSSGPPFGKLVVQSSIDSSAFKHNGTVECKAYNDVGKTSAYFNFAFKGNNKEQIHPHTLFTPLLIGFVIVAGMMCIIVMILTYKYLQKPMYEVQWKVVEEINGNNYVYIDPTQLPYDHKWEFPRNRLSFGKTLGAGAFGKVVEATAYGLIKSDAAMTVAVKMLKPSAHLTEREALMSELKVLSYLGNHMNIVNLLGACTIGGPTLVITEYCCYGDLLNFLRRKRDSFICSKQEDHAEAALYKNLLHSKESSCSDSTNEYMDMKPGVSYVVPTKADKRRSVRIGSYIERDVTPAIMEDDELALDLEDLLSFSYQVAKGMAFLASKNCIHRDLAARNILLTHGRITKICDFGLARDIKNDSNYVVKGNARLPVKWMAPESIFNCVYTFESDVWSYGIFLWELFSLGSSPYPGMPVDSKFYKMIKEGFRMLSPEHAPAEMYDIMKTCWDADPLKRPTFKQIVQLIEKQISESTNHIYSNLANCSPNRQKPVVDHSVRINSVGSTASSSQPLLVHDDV", "assay": "Inhibitory action on KIT (ELISA)", "assay_type": "biochemical", "conditions": "recombinant human kinase", "procedure": "A test compound was dissolved in dimethyl sulfoxide to make a 10 mM solution, which was stored in a dark place at 4° C. until use.\nProtein tyrosine kinases (recombinant human kinases) used in the study were the following products from Carna Biosciences Inc. (Kobe, Japan).\nVEGFR-1 (FLT 1) (product number: 08-189) VEGFR-3 (FLT 4) (product number: 08-190) RON (product number: 08-152) RET (product number: 08-159) KIT (product number: 08-156)\nKinase activity was measured in a mobility shift assay (MSA) method (J. Biomolecular Screening, 11, 359-368, 2006) using QuickScout Screening Assist™ (Carna Biosciences Inc., commercial kit), and enzyme-linked immunoassay (ELISA).\n10 μl of the test substance solution obtained by dissolving or suspending in the assay buffer (15 mM Tris, 0.01% Tween 20, 2 mM DTT, pH 7.5) (4× final concentration), or 10 μl of a solvent (4% dimethyl sulfoxide-assay buffer) was dispensed into a DELFIA Streptavidin-coated clear plate (PerkinElmer Inc., product number 4009-0010). Then, 10 μl of an ATP/substrate/metal solution of QuickScout Screening Assist™ ELISA was added. Additionally, 20 μl of the kinase solution diluted with the assay buffer was added to initiate a reaction. For a blank, only 20 μl of the assay buffer was added. The assay method was in accordance with the protocol of QuickScout Screening Assist™ ELISA. After the reaction, the absorbance at 450 nm in each well was measured using SpectraMax (Molecular Devices, California, U.S.A)."}, "[3]": {"tested_on": "Human umbilical vein endothelial cells (HUVECs)", "assay": "Growth inhibitory activity on human umbilical vein endothelial cells stimulated by VEGF", "assay_type": "cell-based", "conditions": "HUVEC, 72 h, 3 days, Cell Counting Kit-8", "procedure": "Human umbilical vein endothelial cells (HUVECs) were isolated according to the reported method (Shin-seikagaku jikken kouza “saibou baiyou gijutu (Cell culturing techniques)” p. 197-202) and incubated to confluence using an EGM-2 culture medium (obtained from Sanko Junyaku Co., Ltd.) in a 5% CO2 incubator (37° C.). The HUVECs were collected by a trypsin-EDTA treatment and washed with a culture medium (2% fetal bovine serum-supplemented Human endothelial SFM basal medium, obtained from Invitrogen Corp.), followed by suspending them in the medium to count the cell number. By diluting it with the medium, a 2×10^4 cells/ml cell suspension was prepared. The cell suspension was dispensed into a 96-well plate (obtained from FALCON) by 100 μl each, and incubated at 37° C. in a 5% CO2 incubator overnight. After the incubation, 50 μl of the test substance diluted with the medium was added to each well, and 50 μL of 80 ng/ml human recombinant VEGF (obtained from R&D systems, Inc.) diluted with the medium was added and further incubated for 3 days in the 5% CO2 incubator (37° C.). After the incubation, 20 μl of Cell Counting Kit-8 (obtained from DOJINDO Laboratories) was added to each well, which were incubated for about 2 hours in the 5% CO2 incubator (37° C.). After the incubation, the absorbance of the each well was measured using a plate reader MTP-500 (Corona Electric Co., Ltd) with a measurement wavelength of 450 nm and a control wavelength of 660 nm. A ratio of absorbance (%) of each well with the test substance against the wells without the test substance was determined, and based on this ratio, the concentration of the test substance required to inhibit 50% of cell proliferation (IC50) was determined and the results are shown in Table 2."}, "[4]": {"target": "T2, VEGFR-2 tyrosine kinase (His6-VEGFR-2, cytoplasmic domain) (Homo sapiens, UniProt P35968)", "T2 construct": "made in house; host or cells: Sf9 insect cells (baculovirus, pFastBac-HT)", "T2 sequence (P35968 786-1356 limits assumed)": "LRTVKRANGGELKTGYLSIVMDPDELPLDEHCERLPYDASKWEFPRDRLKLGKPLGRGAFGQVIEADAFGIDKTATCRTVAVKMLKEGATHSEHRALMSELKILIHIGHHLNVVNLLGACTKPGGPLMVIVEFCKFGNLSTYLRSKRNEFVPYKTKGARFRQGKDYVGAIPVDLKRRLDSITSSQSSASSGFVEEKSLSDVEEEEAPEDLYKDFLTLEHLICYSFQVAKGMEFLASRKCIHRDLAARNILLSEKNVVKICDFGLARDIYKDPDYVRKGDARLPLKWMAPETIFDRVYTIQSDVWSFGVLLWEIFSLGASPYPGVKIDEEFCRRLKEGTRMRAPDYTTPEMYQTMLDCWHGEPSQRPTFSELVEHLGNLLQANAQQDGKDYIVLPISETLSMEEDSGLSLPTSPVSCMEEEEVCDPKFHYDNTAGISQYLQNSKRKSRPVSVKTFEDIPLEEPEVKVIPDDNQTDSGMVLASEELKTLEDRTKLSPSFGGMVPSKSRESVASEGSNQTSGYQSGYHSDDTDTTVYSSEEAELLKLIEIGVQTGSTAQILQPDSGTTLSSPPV", "assay": "Inhibitory activity on VEGFR-2 tyrosine kinase (HTRF)", "assay_type": "biochemical", "conditions": "biotin-poly(GT) substrate", "source_text": "Cytoplasmic domain of VEGFR-2 (Genbank Accession No. L04947) is a 1.7 kb DNA fragment starting from lysine 791 and contains a stop codon, as described by Tarman et al. (Oncogene, 6(9), 1677-1683, 1991). This DNA fragment was isolated from a human placental cDNA library (obtained from Clontech Laboratories, Inc.) with two primers (obtained from TaKaRa Ex Taq™ Kit, TaKaRa) using a PCR method. This DNA fragment was cloned into a baculovirus transplace vector (pFastBac™-HT (obtained from GIBCO BRL)), to obtain a recombinant construct. An insect cell (Spodoptera frugiperda 9 (Sf9)) was transfected with it, and a VEGFR-2 recombinant baculovirus solution was prepared (preparation of the recombinant baculovirus can be found in a standard textbook (Bac-to-Bac Baculovirus Expression System (GIBCO BRL)).\nTo Sf9 cells (3×10^8 cells) suspended in a SF-90011 culture medium containing 2% FBS (obtained from Invitrogen Corp.), the above mentioned recombinant VEGFR-2 baculovirus solution (4 ml) was added and incubated with shaking at 27° C. for 48 hours. The recombinant VEGFR-2 baculovirus-infected cell culture was centrifuged at 4° C. at 1000 rpm for 5 minutes, and the supernatant was removed. The precipitated infected cells were suspended in 80 ml of ice-cold PBS, the suspension was centrifuged at 4° C. at 1000 rpm for 5 minutes, and the supernatant was removed. The precipitated infected cells were suspended in 40 ml of ice-cold Lysis Buffer (50 mM Tris-HCl (pH 8.5), 5 mM 2-mercaptoethanol, 100 mM KCl, 1 mM PMSF, and 1% (v/v) NP-40). This suspension was centrifuged at 4° C. at 12,000 rpm for 30 min to obtain a supernatant.\nThis supernatant was added to a Ni-NTA agarose column (3 ml, obtained from Qiagen) which had been equilibrated with 30 ml of Buffer A (20 mM Tris-HCl (pH 8.5), 5 mM 2-mercaptoethanol, 500 mM KCl, 20 mM imidazole, and 10% (v/v) glycerol). This column was washed sequentially with 30 ml of Buffer A, 6 ml of Buffer B (20 mM Tris-HCl (pH 8.5), 5 mM 2-mercaptoethanol, 1M KCl, and 10% (v/v) glycerol), and 6 ml of Buffer A. Then, to this column, 6 ml of Buffer C (20 mM Tris-HCl (pH 8.5), 5 mM 2-mercaptoethanol, 100 mM KCl, 100 mM imidazole, and 10% (v/v) glycerol) was added to obtain an eluate. This eluate was poured into a dialysis membrane (obtained from Spectrum Laboratories) and dialyzed with 1 liter of dialysis buffer (20 mM Tris-HCl (pH 7.5), 10% (v/v) glycerol, 1 mM DTT, 0.1 mM Na3VO4, 0.1 mM EGTA) at 4° C. overnight and stored at −80° C. until use. After the dialysis, a part of the eluate was subjected to a SDS electrophoresis, and the recombinant protein (His 6-VEGFR-2, a cytoplasmic domain of VEGFR-2 fused with 6 histidine residues on its N-terminus) detected at about 100 kDa Mw in Coomassie Brilliant Blue staining was subjected to protein quantification using BSA (obtained from Sigma Co. Ltd.) as a standard.\nIn each well of a 96-well round bottom plate (obtained from NUNC, product number 163320), 10 μl of a solution for kinase reaction (200 mM Hepes (pH 7.4), 80 mM MgCl2, 16 mM MnCl2, 2 mM Na3VO4), 250 ng of biotin-conjugated poly (Glu 4: Tyr 1) (biotin-poly (GT) obtained from Nihon Schering K.K.) (6 μl of 1/15 diluted solution with distilled water), 15 ng of His6-VEGFR-2 (10 μl of a 1/240 diluted solution with a 0.4% BSA solution), and a test substance solution in dimethyl sulfoxide (4 μl of 1/100 dilution with 0.1% BSA) were added to make a total volume of 30 μl. To them, 10 μl of 4 μM ATP (obtained from Sigma Co. Ltd.) diluted with distilled water was added, and the resultant was incubated for 10 minutes at 30° C., followed by addition of 10 μl of 500 mM EDTA (pH 8.0) (obtained from Wako Pure Chemical Industries, Ltd.) to obtain a kinase reaction solution.\nTo detect tyrosine-phosphorylated biotin-poly (GT), the Homogenous Time-Resolved Fluorescence (HTRF) method was used (Analytical Biochemistry, 269, 94-104, 1999). […]"}, "[5]": {"tested_on": "human thyroid cancer cell line (TT)", "conditions": "subcutaneous TT model; cited from earlier work"}}, "note": "pIC50: −log10 of the molar value."}
{"smiles": "COc1cc2c(Nc3ccc(Br)cc3F)ncnc2cc1OCC1CCN(C)CC1", "note": "[ZD6474]", "values": [{"measurement": "tumorigenesis", "setting": "[1]", "result": "inhibited tumorigenesis"}, {"measurement": "anchorage-independent growth", "setting": "[2]", "result": "suppressed anchorage-independent growth"}]}
{"smiles": "CN1CCN(C2CCN(C(=O)Nc3cc(Oc4ccc(NC(=O)C5(C(=O)Nc6ccc(F)cc6)CC5)c(F)c4)ccn3)CC2)CC1", "note": "[N-(2-Fluoro-4-{[2-({[4-(4-methylpiperazin-1-yl)piperidin-1-yl]carbonyl}amino)pyridin-4-yl]oxy}phenyl)-N′-(4-fluorophenyl)cyclopropane-1,1-dicarboxamide]", "values": [{"measurement": "pIC50", "setting": "KIT", "result": 7.00}, {"measurement": "pIC50", "setting": "[3]", "result": 7.09}, {"measurement": "pIC50", "setting": "[4]", "result": 6.62}]}
{"smiles": "CNC(=O)c1cc(Oc2ccc(NC(=O)Nc3ccc(Cl)c(C(F)(F)F)c3)cc2)ccn1", "note": "[BAY 43-9006]", "values": [{"measurement": "tumor size", "setting": "[5]", "result": "reduced a tumor size"}]}
